Measured values: US20200197409A1, “HEPATITIS B VIRUS SURFACE ANTIGEN INHIBITOR” (FUJIAN COSUNTER PHARMACEUTICAL CO., LTD., priority 2017, published 2020)

Key:
HBV = experiment: In vivo pharmacodynamic study of hydrodynamic injection mouse HBV model (HDI-HBV) via tail vein; parameters: species or system Balb/c mice; conditions: mouse plasma
Description: Anti-hepatitis B virus activity of the compound of the embodiment in vivo was evaluated by HDI mice model.
Balb/c mice, 10% HP—F-CD as vehicle, test compound, RG7834, ETV (Entecavir), pAAV2-HBV 1.3mer plasmid (extracted with Qiagen EndoFree Plasmid Giga kit), main reagents including QIAamp96 DNA kit and FasStart Universal Probe Mast (ROX). The main instruments used in this experiment included centrifuge (Beckman Allegra X-15R), tissue grinder (QIAGEN-Tissue lyser II) and spectrophotometer (Thermo-NANODROP 1000).
b) On day 0, all mice were subjected to hydrodynamic injection with HBV plasmid DNA solution via tail vein. The plasmid DNA was pre-treated with sterile physiological saline before injection and stored at 4° C. until use. Plasmid DNA solution was injected via the tail vein at a dose of 8% of the body weight of the mouse within 5 seconds.
c) On the 1st day to the 7th day, the mice were administered with the compound or solvent by oral gavage for 7 days.
d) On the 1st day, 3rd day and 5th day, the blood was collected from the submandibular vein of the mice, and heparin sodium was used as an anticoagulant. The blood sample was centrifuged at 7,000×g, 4° C. to prepare the plasma for the determination of HBV DNA.
e) On the 7^h day, all mice were euthanized by CO2. The blood was collected from the heart to prepare plasma, and the liver tissue was collected. Two left hepatic lobe were isolated, the size of which was 70-100 mg, and were frozen by liquid nitrogen immediately after collection. One of the hepatic lobe was used for HBV DNA detection, and the other was used for backup.
The content of HBsAg in the serum of the mice was determined by ELISA (enzyme linked immunosorbent assay). The experimental procedure refers to the specification of HBsAg ELISA kit.
The inhibitory activity of the test compound on HBV replication on the mouse HDI model was determined by measuring the content of HBsAg in the plasma of the mice.

[1] = Single dose neurotoxicity test on rats (functional observation combination test, FOB); assay type: in vivo; conditions: 24 hours after single intragastric dose of 1000 mg/kg and 300 mg/kg, male SD rats
Description: In this experiment, SD rats were intragastrically administrated with RG7834 and Embodiment 6 in a single dose, and the potential neurobehavioral toxicities to SD rats were evaluated by functional observation combination test (FOB). A total of 25 SD male rats were used in this experiment. At the start of the administration, the animals were about 7 to 8 weeks old, males weighed between 225.50 and 285.70 g, and […]. […] The animals in the control group were administered with the menstruum. All animals were administered at a volume of 10 mL/kg, and subjected to the FOB test.

CYP1A2 = target: T1, CYP1A2 (Homo sapiens, UniProt P05177); experiment: Inhibition of cytochrome P450 isoenzyme in human liver microsomes; assay type: in vitro ADME
T1 construct: from tissue; host or cells: human liver microsomes
T1 sequence (P05177 1-516): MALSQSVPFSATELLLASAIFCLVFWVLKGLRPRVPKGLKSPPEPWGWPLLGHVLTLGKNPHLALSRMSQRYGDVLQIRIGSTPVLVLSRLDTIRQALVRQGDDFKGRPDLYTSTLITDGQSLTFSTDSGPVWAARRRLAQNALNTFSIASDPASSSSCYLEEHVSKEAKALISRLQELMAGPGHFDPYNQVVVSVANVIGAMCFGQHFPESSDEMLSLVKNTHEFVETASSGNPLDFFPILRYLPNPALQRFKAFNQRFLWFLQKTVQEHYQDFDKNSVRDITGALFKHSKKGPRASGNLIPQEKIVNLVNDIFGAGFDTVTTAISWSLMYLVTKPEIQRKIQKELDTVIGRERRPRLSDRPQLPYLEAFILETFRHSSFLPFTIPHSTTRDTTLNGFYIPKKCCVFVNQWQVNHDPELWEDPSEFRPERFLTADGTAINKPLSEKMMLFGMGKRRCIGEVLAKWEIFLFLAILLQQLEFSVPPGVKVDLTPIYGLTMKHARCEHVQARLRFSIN
Description: (§1) The inhibitory effect of the test compound on different subtypes of human cytochrome P450 isoenzyme was determined. Working solutions of the test compound, standard inhibitor (100×final concentration) and a mixed substrate were prepared. Microsomes frozen in a −80° C. refrigerator were thawed. 2 μL of test compound and the standard inhibitor solution were added into the corresponding wells, while 2 μL of the corresponding solvent was added into the non-inhibitor control well (NIC) and the blank control well (Blank). 20 μL of the mixed substrate solution was added into the corresponding wells except for the Blank well (20 μL of PB was added into the Blank well). Human liver microsomes solution was prepared (it was put back to the refrigerator immediately after use and the date was marked) and 158 μL of human liver microsomes solution were added into all of the wells immediately. The sample plate was pre-incubated under a 37° C. water bath, during which coenzyme factor (NADPH) solution was prepared immediately. After 10 minutes, 20 μL of coenzyme factor (NADPH) solution was added into all of the wells. After the sample plate was shaken evenly, it was incubated under a 37° C. water bath for 10 minutes. 400 μL of cold acetonitrile solution (the internal standard was 200 ng/mL Tolbutamide and Labetalol) was added to terminate the reaction at the corresponding time. After the sample plate was well-mixed, it was centrifuged at 4,000 rpm for 20 minutes to precipitate the protein. 200 μL of the supernatant was collected and added to 100 μL of water, and subjected to LC/MS/MS measurement after being shaken evenly.

CYP2D6 = target: T2, CYP2D6 (Homo sapiens, UniProt P10635); experiment: as above; assay type: in vitro ADME
T2 construct: from tissue; host or cells: human liver microsomes
Description: as §1

T2 sequence (P10635 whole entry): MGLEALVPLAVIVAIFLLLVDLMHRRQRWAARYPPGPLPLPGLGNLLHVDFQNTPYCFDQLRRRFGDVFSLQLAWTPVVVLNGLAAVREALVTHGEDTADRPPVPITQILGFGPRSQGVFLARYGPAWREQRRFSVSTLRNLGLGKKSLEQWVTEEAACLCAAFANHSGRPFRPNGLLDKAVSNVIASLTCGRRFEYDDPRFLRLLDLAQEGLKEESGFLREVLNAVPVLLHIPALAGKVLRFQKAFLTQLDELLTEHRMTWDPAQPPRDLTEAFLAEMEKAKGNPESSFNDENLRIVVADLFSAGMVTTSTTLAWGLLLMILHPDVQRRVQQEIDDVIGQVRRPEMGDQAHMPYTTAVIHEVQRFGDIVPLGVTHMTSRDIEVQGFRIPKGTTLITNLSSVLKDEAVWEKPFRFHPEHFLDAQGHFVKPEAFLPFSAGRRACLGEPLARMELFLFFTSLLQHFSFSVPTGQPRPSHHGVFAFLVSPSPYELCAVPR

**Q.** For `COCCCOc1cc2c(cc1OC)-c1cc(=O)c(C(=O)O)cn1[C@H](C(C)(C)C)CO2` [Embodiment 6], which “Log HBsAg (IU/mL) (Ave. value)” value (HBV; dosing time day 1, 30 mg/kg QD gavage) is on record?
**A.** 3.86 IU/mL

**Q.** And the “Log HBsAg (IU/mL) (Ave. value)” value (HBV; dosing time day 3, 30 mg/kg QD gavage)?
**A.** 4.09 IU/mL

**Q.** And the “Log HBsAg (IU/mL) (Ave. value)” value (HBV; dosing time day 5, 30 mg/kg QD gavage)?
**A.** 3.27 IU/mL

**Q.** What about the “Log HBsAg (IU/mL) (Ave. value)” value (HBV; dosing time day 7, 30 mg/kg QD gavage) of the same molecule?
**A.** 1.07 IU/mL

**Q.** What about the “magnification of the pupil associated with the test compound” value [1] of the same molecule?
**A.** did not appear

**Q.** And the IC50 (CYP1A2)?
**A.** > 50 µM

**Q.** What about the IC50 (CYP2D6) of the same molecule?
**A.** > 50 µM
